Measured values taken from paper PMC9489553, “Biochemical and clinical studies of putative allergens to assess what distinguishes them from other non-allergenic proteins in the same family” (Transgenic Research, 2022).

Biological target: T1, ChMDH (Cladosporium herbarum, UniProt P0C0Y5)
T1 construct: full length, codon-optimised synthetic gene, pET-28a, E. coli BL21(DE3), N-terminal His-tag cleaved, tetramer
Assay: X-ray crystal structure, […] Å
Type: binding
Settings: co-crystallised with 5 mM NADP+, pH 7.0, 4 °C; active site

T1 sequence (P0C0Y5 whole entry): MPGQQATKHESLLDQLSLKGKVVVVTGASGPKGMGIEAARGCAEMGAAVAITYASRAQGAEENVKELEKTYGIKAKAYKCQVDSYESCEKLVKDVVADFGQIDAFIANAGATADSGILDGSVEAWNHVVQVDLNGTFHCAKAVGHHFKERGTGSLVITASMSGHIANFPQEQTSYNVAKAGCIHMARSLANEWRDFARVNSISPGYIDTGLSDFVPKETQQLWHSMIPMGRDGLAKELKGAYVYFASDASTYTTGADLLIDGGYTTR

NC(=O)c1ccc[n+]([C@@H]2O[C@H](COP(=O)(O)OP(=O)(O)OC[C@H]3O[C@@H](n4cnc5c(N)ncnc54)[C@H](OP(=O)(O)O)[C@@H]3O)[C@@H](O)[C@H]2O)c1 [NADP^+]
X-ray crystal structure, 2.04 Å: ChMDH (the third orphan allergen selected for study) in complex with NADP^+ was determined
